Consider 5 compounds from US9556192B2, “Functionalized 9-bromo-camptothecin derivatives” (NERVIANO MEDICAL SCIENCES S.R.L., priority 2012, dated 2017).

Data set [1] deals with A2780 human ovarian cancer cells. Kind of data set: In vitro cell proliferation assay (CellTiter-Glo). The class given is cell-based. The following applies: 72 h; for IC50: read-out: A2780 (IC50 nM); for pIC50: read-out: IC50 value in A2780 human ovarian cancer cells. The protocol:
In Vitro Cell Proliferation Assay
A2780 human ovarian and MCF7 human breast cancer cells (1250 cells/well) were seeded in white 384 well-plates in complete medium (RPMI1640 or EMEM plus 10% Fetal bovine serum) and treated with compounds dissolved in 0.1% DMSO, 24 h after seeding. The cells were incubated at 37° C. and 5% CO2 and after 72 h the plates were processed using CellTiter-Glo assay (Promega) following the manufacturers instructions.
CellTiter-Glo is a homogenous method based on the quantification of the ATP present, an indicator of metabolically active cells. ATP is quantified using a system based on luciferase and D-luciferin resulting into light generation. The luminescent signal is proportional to the number of cells present in culture.
Briefly, 25 μL/well of reagent solution are added to each well and after 5 min shaking microplates are read by a luminometer. The luminescent signal is proportional to the number of cells present in culture.
On the technique in general: In ATP-based viability assays light output follows the ATP content of the culture.

The next data set deals with cathepsin B (Homo sapiens, UniProt P07858). Description: Release of a drug moiety from conjugate in presence of cathepsin B. The class given is biochemical. The following applies: 0.2 units cathepsin B, sodium acetate buffer pH 5.5, 1 mM Cys, 2 h at 40° C. The protocol:
As an example, that is not intended to limit the scope of the invention, the release of a compound of formula (I) from the conjugate was performed in presence of cathepsin as reported below.
(§1) The conjugate A1 was incubated with 0.2 units of cathepsin B in sodium acetate buffer pH 5.5 and 1 mM Cys for 2 h at 40° C. Then pH was adjusted to 7.4 by addition of Tris-HCl buffer and maintained at room temperature for 1 h.

Data set [2] can be described thus: Elimination of self-immolative group at pH 7.4 (HPLC/MS). In kind it is physicochemical. The conditions noted are these: pH 7.4 (Tris-HCl buffer), room temperature, 1 h. The procedure:
as §1

pIC50: −log10 of the molar value. Structures can show the parent of a compound that is named as a salt. Where two headings read alike, the source gives them in different places.

For the compound `CC[C@@]1(OC(=O)CN)C(=O)OCc2c1cc1n(c2=O)Cc2cc3c(Br)cccc3nc2-1` [Comp. 1, (4S)-10-bromo-4-ethyl-3,14-dioxo-3,4,12,14-tetrahydro-1H-pyrano[3′,4′6,7]indolizino[1,2-b]quinolin-4-yl glycinate hydrochloride], in data set [1], the IC50 (in general, the concentration needed to halve the response being measured) amounted to 0.97 nM and the pIC50 – broadly, −log10 of the IC50, conventionally taken in molar units – was > 8.00.
With `CC[C@@]1(OC(=O)CC2(CNC(=O)[C@@H](CCCNC(N)=O)NC(=O)[C@@H](NC(=O)CCCCCN3C(=O)CC(N[C@H](C=O)CS)C3=O)C(C)C)CCCCC2)C(=O)OCc2c1cc1n(c2=O)Cc2cc3c(Br)cccc3nc2-1` (stereo partly shown) [conjugate A1], the “Cleavage of the Z peptidic linker of the conjugate with release of Comp. 11” value at cathepsin B was “Partial disappearance”.
`CC[C@@]1(OC(=O)CC2(CN)CCCCC2)C(=O)OCc2c1cc1n(c2=O)Cc2cc3c(Br)cccc3nc2-1.Cl` [Comp. 11]: in data set [2], the “Release of 9-bromo-camptothecin by elimination of the self-immolative group W” value is recorded as “elimination of the self-immolative group W”.
In the case of `CC[C@@]1(O)C(=O)OCc2c1cc1n(c2=O)Cc2cc3c(Br)cccc3nc2-1` [9-bromo-camptothecin], the IC50 in data set [1] turned out to be 1.62 nM.
Take `CC[C@@]1(OC(=O)CNC(=O)[C@H](CC(C)C)NC(=O)[C@@H](N)Cc2ccccc2)C(=O)OCc2c1cc1n(c2=O)Cc2cc3c(Br)cccc3nc2-1` [Comp. 2, (4S)-10-bromo-4-ethyl-3,14-dioxo-3,4,12,14-tetrahydro-1H-pyrano[3′,4′:6,7]indolizino[1,2-b]quinolin-4-yl L -phenylalanyl-L-leucylglycinate]: in data set [1], the IC50 was found to be 1.56 nM and the pIC50 was > 8.00.
